Test system: human myeloma cell line MM.1S
Test: SILAC acetylated-lysine peptide profiling, HDAC inhibitor vs DMSO (light/heavy ratio)
Assay type: cell-based
Description: An embodiment of the invention comprises utilizing the SILAC method in order to quantitate changes in protein expression between two or more populations of cells. The SILAC method is a technique based on mass spectrometry that detects differences in protein abundance among samples using non-radioactive isotopic labeling. The SILAC method is known in the art, and described in detail in Ong et al., “Stable Isotope Labeling by Amino Acids in Cell Culture, SILAC, as a Simple and Accurate Approach to Expression Proteomics”, Molecular & Cellular Proteomics, vol. 1, pp. 376-386 (2002), which is incorporated herein by reference in its entirety.
Briefly, the SILAC method involves growing two populations of cells in cell culture. The first population of cells is grown in growth media containing normal amino acids (“normal media”). The second population of cells is grown in media lacking a standard essential amino acid (such as lysine), but is then supplemented with a non-radioactive, isotopically labeled form of that essential amino acid (such as lysine labeled with ^13C atoms, rather than normal ^12C atoms), which is called “heavy media”. When the two populations of cells are each growing in the medium, they incorporate the amino acids into all of their proteins. The growth of cells maintained in the heavy media is no different from that in normal media. All peptides containing the heavy amino acids are heavier than their normal counterparts. The cells from each of the two populations of cells are lysed. The lysates from each of the two cell populations are then combined. The combined cell lysates are then analyzed by mass spectrometry. Pairs of chemically identical peptides of different stable isotope composition can be differentiated in a mass spectrometer due to their difference in mass. The ratio of peak intensities in the mass spectrum for such peptide pairs reflects the abundance ratio for the two proteins.
This example describes SILAC studies that were performed to compare the effects of three different HDAC inhibitors (Compound A, Compound B, and tubastatin A) to a control on a human multiple myeloma cell line. The HDAC inhibitors were also compared amongst themselves to determine differences in their effects.
A human myeloma cell line MM.1S was grown using either ^12C (light) or ^13C (heavy) lysine containing culture medium. The “heavy” cells were treated with DMSO as the control, and the “light” cells were treated with a single HDAC inhibitor at 37° C. for 6 hours. The heavy and light cells were lysed, and the lysates were mixed in 1:1 ratio and digested with the protease trypsin. The acetylated lysine containing peptides (due to the action of the HDAC inhibitor) in the digested peptide pool were captured by a non-specific anti-acetylated lysine antibody cocktail (the antibodies identify both light and heavy acetylated peptides), and subjected to mass spectrometry analysis in order to identify thousands of individual peptides.
Thousands of peptides were identified in pairs (^12C and ^13C) due to their known mass differences. The amino acid sequence and quantitative ratio (Light/Heavy) of a given peptide in two differentially treated cell lysates were then determined and annotated with their possible protein (gene) sources.
As stated above, three HDAC inhibitors (Compound A, Compound B, and Tubastatin A) were used. Thus, the SILAC method was performed three times, with a different HDAC inhibitor compared to a control each time. Accordingly, there are three pairs of quantitative data in the table below, i.e., Compound A:DMSO, Compound B:DMSO, and Tubastatin A:DMSO. A cut-off of 1.30 fold of change (increase or decrease) was then used to determine “changed” or “+” in the table, and any peptides with a fold of change less than 1.3 fold were determined to be “unchanged” or “0” in the table. Those peptides that were not identified were marked as “NA” in the table. […]

CN1CCc2c(c3ccccc3n2Cc2ccc(C(=O)NO)cc2)C1 [Tub A] was tested, and the “light to heavy ratio (L/H ratio) of acetylated peptide LLLFK(ac)TFSR (SEQ ID NO: 514)” value (Heterogeneous nuclear ribonucleoprotein U-like protein 2 [553], gene HNRNPUL2, inhibitor:DMSO) was 0.00 log 2, the “light to heavy ratio (L/H ratio), log 2 scale, acetylated peptide GSK(ac)K(ac)AINK (SEQ ID NO: 792)” value (Histone H2B type 1-M [16:17], gene HIST1H2BM, drug:DMSO) was 0.00 and the “light to heavy ratio (L/H ratio), log 2 scale, acetylated peptide K(ac)AINK(ac)AQK (SEQ ID NO: 793)” value (Histone H2B type 1-M [17:21], gene HIST1H2BM, drug:DMSO) was 0.00. For the same molecule, the “light to heavy ratio (L/H ratio) of acetylated peptide PEPAK(ac)SAPAPK(ac)K (SEQ ID NO: 309)” value (Histone H2B type 2-E [6:12], HIST2H2BE, drug:DMSO) was 0.58 log 2, the “light to heavy ratio (L/H ratio) of acetylated peptide AVTK(ac)AQK(ac)K (SEQ ID NO: 560)” value (Histone H2B type 2-E [21:24], gene HIST2H2BE, inhibitor:DMSO) was 0.00 log 2 and the “light to heavy ratio (L/H ratio) of acetylated peptide K(ac)STGGK(ac)APR (SEQ ID NO: 310)” value (Histone H3.2 [10:15], HIST2H3D, HIST2H3A, HIST2H3C, drug:DMSO) was 0.46 log 2. For the same molecule, the “light to heavy ratio (L/H ratio), log 2 scale, acetylated peptide K(ac)QLATK(ac)AAR (SEQ ID NO: 796)” value (Histone H3.2 [19:24], gene HIST2H3D, HIST2H3A, HIST2H3C, drug:DMSO) was 0.00, the “light to heavy ratio (L/H ratio) of acetylated peptide GK(ac)GGK(ac)GLGK (SEQ ID NO: 311)” value (Histone H4 [6:9], HIST2H4B, HIST1H4C and other H4 genes, drug:DMSO) was 0.49 log 2 and the “light to heavy ratio (L/H ratio) of acetylated peptide GLGK(ac)GGAK(ac)R (SEQ ID NO: 312)” value (Histone H4 [13:17], HIST2H4B, HIST1H4C and other H4 genes, drug:DMSO) was 0.49 log 2. For the same molecule, the “light to heavy ratio (L/H ratio) of acetylated peptide GLGK(ac)GGAKR (SEQ ID NO: 313)” value (Histone H4 [13], HIST2H4B, HIST1H4C and other H4 genes, drug:DMSO) was −0.62 log 2, the “light to heavy ratio (L/H ratio) of acetylated peptide DGLQNEK(ac)NIVSTPVK (SEQ ID NO: 268)” value (Hydroxymethylglutaryl-CoA lyase mitochondrial [48], HMGCL, drug:DMSO) was 0.40 log 2 and the “light to heavy ratio (L/H ratio) of acetylated peptide K(ac)NINCSIEESFQR (SEQ ID NO: 594)” value (Hydroxymethylglutaryl-CoA lyase mitochondrial [137], gene HMGCL, inhibitor:DMSO) was 0.00 log 2. For the same molecule, the “light to heavy ratio (L/H ratio) of acetylated peptide, log 2 scale” value (IFVGGLSPDTPEEK(ac)IR (SEQ ID NO: 166), Isoform 1 of Heterogeneous nuclear ribonucleoprotein D0 [197], HNRNPD) was −0.78, the “light to heavy ratio (L/H ratio) of acetylated peptide, log 2 scale” value (IGFGSFVDK(ac)TVLPFVSTVPSK (SEQ ID NO: 180), Isoform Long of Integrin beta-7 [199], ITGB7) was −0.40 and the “light to heavy ratio (L/H ratio) of acetylated peptide, log 2 scale” value (IGIEIIK(ac)R (SEQ ID NO: 174), 60 kDa heat shock protein mitochondrial [469], HSPD1) was −0.42. The “L/H ratio of acetylated peptide YAASSYLSLTPEQWK(ac)SHR (SEQ ID NO: 56)” value (IGLV2-14, IGLC2 [208], log 2 scale, drug vs DMSO) was −0.63, the “light to heavy ratio (L/H ratio) of acetylated peptide, log 2 scale” value (IMK(ac)DLDQCR (SEQ ID NO: 217), Protein S100-A10 [57], S100A10) was 0.72 and the “light to heavy ratio (L/H ratio) of acetylated peptide, log 2 scale” value (IQDK(ac)EGIPPDQQR (SEQ ID NO: 212), Ubiquitin-40S ribosomal protein S27a [33], RPS27A) was −0.50. For the same molecule, the “light to heavy ratio (L/H ratio) of acetylated peptide, log 2 scale” value (ISK(ac)EVLAGR (SEQ ID NO: 167), Isoform Short of Heterogeneous nuclear ribonucleoprotein U [417], HNRNPU) was −0.75, the “L/H ratio of acetylated peptide” value (IVQK(ac)HPHTGDTKEEK (SEQ ID NO: 489), Death-associated protein 1 [29], DAP) was 0.00 log 2 and the “light to heavy ratio (L/H ratio) of acetylated peptide, log 2 scale” value (IYFTDSSSK(ac)WQR (SEQ ID NO: 138), Isoform 1 of Adipocyte plasma membrane-associated protein [220], C20orf3) was −0.59. For the same molecule, the “light to heavy ratio (L/H ratio), log 2 scale, acetylated peptide ADLIK(ac)QYGR (SEQ ID NO: 798)” value (Inactive hydroxysteroid dehydrogenase-like protein 1 [64], gene HSDL1, drug:DMSO) was 0.00, the “light to heavy ratio (L/H ratio) of acetylated peptide HAHGDQYK(ac)ATDFVADR (SEQ ID NO: 574)” value (Isocitrate dehydrogenase [NADP] mitochondrial [180], gene IDH2, inhibitor:DMSO) was 0.00 log 2 and the “light to heavy ratio (L/H ratio) of acetylated peptide AGTFK(ac)MVFTPK (SEQ ID NO: 606)” value (Isocitrate dehydrogenase [NADP] mitochondrial [193], gene IDH2, inhibitor:DMSO) was 0.00 log 2. For the same molecule, the “light to heavy ratio (L/H ratio) of acetylated peptide VVDSMDALDK(ac)VVQER (SEQ ID NO: 318)” value (Isoform 1 of 39S ribosomal protein L47 mitochondrial [144], MRPL47, drug:DMSO) was 0.45 log 2, the “light to heavy ratio (L/H ratio) of acetylated peptide ATVPK(ac)TEIR (SEQ ID NO: 272)” value (Isoform 1 of 40S ribosomal protein S24 [37], RPS24, drug:DMSO) was −0.44 log 2 and the “light to heavy ratio (L/H ratio) of acetylated peptide AEEILEK(ac)GLK (SEQ ID NO: 547)” value (Isoform 1 of 60S ribosomal protein L11 [85], gene RPL11, inhibitor:DMSO) was 0.00 log 2. The “light to heavy ratio (L/H ratio) of acetylated peptide ISK(ac)EEAMR (SEQ ID NO: 299)” value (Isoform 1 of 60S ribosomal protein L11 [159], RPL11, drug:DMSO) was −0.48 log 2, the “light to heavy ratio (L/H ratio) of acetylated peptide AGLVDDFEK(ac)K (SEQ ID NO: 301)” value (Isoform 1 of ATP synthase subunit d mitochondrial [72], ATP5H, drug:DMSO) was 0.66 log 2 and the “light to heavy ratio (L/H ratio) of acetylated peptide VPVPEDK(ac)YTAQVDAEEKEDVK (SEQ ID NO: 290)” value (Isoform 1 of ATP synthase subunit d mitochondrial [85], ATP5H, drug:DMSO) was 0.50 log 2. For the same molecule, the “light to heavy ratio (L/H ratio) of acetylated peptide TLK(ac)ALEYVFK (SEQ ID NO: 516)” value (Isoform 1 of Dedicator of cytokinesis protein 2 [738], gene DOCK2, inhibitor:DMSO) was 0.00 log 2, the “light to heavy ratio (L/H ratio), log 2 scale, acetylated peptide ILSK(ac)LSEETK (SEQ ID NO: 759)” value (Isoform 1 of E3 UFM1-protein ligase 1 [614], gene UFL1, drug:DMSO) was 0.00 and the “light to heavy ratio (L/H ratio) of acetylated peptide ELEK(ac)VCNPIITK (SEQ ID NO: 612)” value (Isoform 1 of Heat shock cognate 71 kDa protein [601], gene HSPA8, inhibitor:DMSO) was 0.00 log 2. The “light to heavy ratio (L/H ratio) of acetylated peptide TLVLSDK(ac)HSPQK (SEQ ID NO: 523)” value (Isoform 1 of Histone-lysine N-methyltransferase MLL3 [2809], gene MLL3, inhibitor:DMSO) was 0.00 log 2, the “light to heavy ratio (L/H ratio) of acetylated peptide VK(ac)NELFK (SEQ ID NO: 565)” value (Isoform 1 of Hydroxyacyl-coenzyme A dehydrogenase mitochondrial [127], gene HADH, inhibitor:DMSO) was 0.00 log 2 and the “light to heavy ratio (L/H ratio) of acetylated peptide LVAENK(ac)FGK (SEQ ID NO: 296)” value (Isoform 1 of Hydroxyacyl-coenzyme A dehydrogenase mitochondrial [301], HADH, drug:DMSO) was −0.43 log 2. For the same molecule, the “light to heavy ratio (L/H ratio) of acetylated peptide K(ac)SADTLWGIQK (SEQ ID NO: 316)” value (Isoform 1 of L-lactate dehydrogenase A chain [318], LDHA, drug:DMSO) was 1.00 log 2, the “light to heavy ratio (L/H ratio) of acetylated peptide FYK(ac)DVLEVGELAK (SEQ ID NO: 596)” value (Isoform 1 of N-alpha-acetyltransferase 50 NatE catalytic subunit [37], gene NAA50, inhibitor:DMSO) was 0.00 log 2 and the “light to heavy ratio (L/H ratio), log 2 scale, acetylated peptide NLQEAEEWYK(ac)SK (SEQ ID NO: 767)” value (Isoform 1 of Peripherin [288], gene PRPH, drug:DMSO) was 0.00. For the same molecule, the “light to heavy ratio (L/H ratio) of acetylated peptide LMK(ac)YLLEQLK (SEQ ID NO: 585)” value (Isoform 1 of Protein MB21D1 [414], gene MB21D1, inhibitor:DMSO) was 0.00 log 2, the “light to heavy ratio (L/H ratio) of acetylated peptide VLSK(ac)EFHLNESGDPSSK (SEQ ID NO: 294)” value (Isoform 1 of Protein SET [154], SET, drug:DMSO) was −1.00 log 2 and the “light to heavy ratio (L/H ratio) of acetylated peptide GYAYVEFENPDEAEK(ac)ALK (SEQ ID NO: 349)” value (Isoform 1 of RNA-binding protein with serine-rich domain 1 [218], RNPS1, drug:DMSO) was 0.00 log 2. For the same molecule, the “light to heavy ratio (L/H ratio), log 2 scale, acetylated peptide […](ac)TDQAQDVK (SEQ ID NO: 765)” value (Isoform 1 of Signal recognition particle 9 kDa protein [52], gene SRP9, drug:DMSO) was 0.00 and the “light to heavy ratio (L/H ratio) of acetylated peptide LEMSYSK(ac)FK (SEQ ID NO: 304)” value (Isoform 1 of UDP-N-acetylglucosamine--dolichyl-phosphate N-acetylglucosaminephosphotransferase [320], DPAGT1, drug:DMSO) was 0.48 log 2.
